Here are results for one compound from paper PMC8523698, “Preclinical characterization of an intravenous coronavirus 3CL protease inhibitor for the potential treatment of COVID19” (Nature Communications, 2021).

Data set [1] can be described thus: Dog pharmacokinetic study. Particulars: for clearance / half-life / Vd: male, Beagle, dog, plasma, iv; for Vd: Vdss.
A short description of data set [2]: Metabolic stability and enzyme kinetics in liver S9 (conversion to PF-00835231). To be noted: for Km at 20 min / microsomal CLint: dog.
The nature of data set [3]: In vitro blood to plasma ratio. The format is in vitro ADME. To be noted: for Plasma concentration (Cp) / Whole blood concentration (Cb): human blood, substrate 1 µM.

Several values for one entry are separate records, joined by “and”; a condition that tells them apart may be missing. Identical values can stand only once. Bounds are passed on as bounds.

By clearance is commonly meant the volume of plasma or blood freed of the substance per unit of time. The half-life is the time needed for the level to fall by half in the phase considered. The term Vd denotes a proportionality between amount in the body and measured concentration, not a real space. The term Vmax denotes the top rate of the reaction or transport when substrate is in excess. Broadly, the Km is the concentration of substrate that gives half-maximal velocity. One may read the microsomal CLint as the capacity of the preparation to metabolise the compound, expressed as a volume cleared per time. For the compound `COc1cccc2[nH]c(C(=O)N[C@@H](CC(C)C)C(=O)N[C@@H](C[C@@H]3CCNC3=O)C(=O)COP(=O)(O)O)cc12` [PF-07304814], in data set [1] (dog IV, PF-07304814 […], PF-00835231 1.0mg/kg), the “%unchanged in urine” value was below 0.1%. Further, in data set [1] (dog plasma, PF-07304814 prodrug dosed […] intravenous, time 8 h, mean, BLQ=0.1ng/mL), the “Total Concn, Mean Data” value is “BLQ”. In data set [1] (dog urine 4-8h, PF-07304814 prodrug dosed […] intravenous, individual dogs, BLQ=1ng/mL for urine), the “Urine Concn” value is “BLQ”. Further, the clearance in data set [1] (CLp, dog IV (n=2, range), PF-07304814 […], PF-00835231 1.0mg/kg) came out at 517 mL/min/kg; in data set [1] ([…], Clearance, Mean Data, PF-07304814 prodrug dosed […] intravenous, mean), 517 mL/min/kg. The half-life in data set [1] (Terminal T1/2, dog IV (n=2, range), PF-07304814 […], PF-00835231 1.0mg/kg) was 30 min; in data set [1] ([…], Half life, Mean Data, PF-07304814 prodrug dosed […] intravenous, mean), 30.6 min. The volume of distribution (Vd) in data set [1] (dog IV (n=2, range), PF-07304814 […], PF-00835231 1.0mg/kg) worked out at 9.3 L/kg; in data set [1] ([…], Mean Data, PF-07304814 prodrug dosed […] intravenous, mean), 9.3 L/kg. Further, the Vmax in data set [2] (Dog, best-fit, Two enzyme: MM + Unsaturable) is reported as 213.7 pmol/min/mg. In addition, the Km at 20 min was found to be 2.91 µM in data set [2] (dog liver S9, pH 7.5, KM) and 2.91 µM in data set [2] (dog liver S9, pH 7.5, Km, Dog, best-fit, Two enzyme: MM + Unsaturable). Also, the microsomal CLint in data set [2] (liver S9, pH 7.5, CL, unsaturable component, best-fit) came to 1.69 µL/min/mg; in data set [2] (liver S9, pH 7.5, CLint total, Dog, (vmax / KM) + CL), 75.2 µL/min/mg; in data set [2] (liver S9, pH 7.5, CLint,app) it was 75.2 µL/min/mg; in data set [2] (liver S9, pH 7.5, CLintu (unbound CLint)), 84 µL/min/mg. The “Measured blood partitioning / Human blood partitioning” value in data set [3] amounted to 0.6. Besides, the “Plasma concentration (Cp)” value was 1970 nM in data set [3] (Mean); 2010 nM and 2000 nM and 1900 nM and 1950 nM in data set [3] (individual replicates). The “Whole blood concentration (Cb)” value is 1.08 µM in data set [3] (Mean); 1.11 µM and 1.06 µM and 1.1 µM in data set [3] (individual replicates).
